Literature values as cited in patent publication US6852718B2, “Phenylsulphonylipiperazinyl derivatives as 5-HT receptor ligands” (Merck Sharp & Dohme Ltd, priority 2000, dated 2005).

Target: human dopamine D2 receptor (Homo sapiens, UniProt P14416)
Sequence (P14416 whole entry): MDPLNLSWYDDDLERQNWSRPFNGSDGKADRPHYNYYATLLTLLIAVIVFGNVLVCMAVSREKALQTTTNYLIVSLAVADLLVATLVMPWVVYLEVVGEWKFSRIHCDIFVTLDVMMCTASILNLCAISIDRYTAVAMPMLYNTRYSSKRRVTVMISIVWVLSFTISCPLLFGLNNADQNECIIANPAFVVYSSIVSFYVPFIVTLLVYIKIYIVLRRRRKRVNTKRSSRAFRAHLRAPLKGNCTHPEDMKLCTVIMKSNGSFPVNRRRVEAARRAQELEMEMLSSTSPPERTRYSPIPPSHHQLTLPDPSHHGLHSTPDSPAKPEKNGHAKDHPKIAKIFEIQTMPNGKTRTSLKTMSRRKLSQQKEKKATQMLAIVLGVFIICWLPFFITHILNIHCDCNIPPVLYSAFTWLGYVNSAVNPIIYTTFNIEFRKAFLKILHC

activity at the human dopamine D2 receptor: essentially devoid of activity
Structure (SMILES): COc1cccc(C(O)C2CCN(CCc3ccc(F)cc3)CC2)c1OC (stereo not drawn) [MDL-100,907, (+)-α-(2,3-dimethoxyphenyl)-1-[2-(4-fluorophenyl)-ethyl]-4-piperidinemethanol]
